This is an account of results in patent US20060193772A1, “Drugs for treating cancer” (priority 2003, published 2006).

Structures are written as SMILES.

For the assay, the system named is multiple myeloma cell line, LP-1 cells. As to the kind of experiment: LP-1 viable cell number (WST-1), doxorubicin and KM 1468 administration methods (Example 3). In kind it is cell-based. The note with it: 1 μmol/L doxorubicin, 1 μg/mL KM 1468, cells only = 100%. The protocol: Multiple myeloma cell line, LP-1 cells (DSMZ ACC41) were seeded in a 96-well culture plate in an amount of 100 μL/well (10,000 cells). Doxorubicin and anti-IGF monoclonal antibody […] were added, and the mixture was cultured at 37° C. for 3 days. The addition of doxorubicin and KM 1468 to the medium was conducted by the following three methods.
Method 1: Cells were cultured in 150 μL of a medium in which doxorubicin was solely added on day 1, and in 200 μL of a medium in which doxorubicin and KM 1468 were added on days 2 and 3.
Method 2: Cells were cultured in 150 μL of a medium in which KM 1468 were solely added on day 1, and in 200 μL of a medium in which doxorubicin and KM 1468 were added on days 2 and 3.
Method 3: Cells were cultured in a medium comprising doxorubicin and KM 1468 (an amount of the medium is 150 μL on day 1 and 200 μL each on days 2 and 3) for three days.
In all of the foregoing methods, doxorubicin and KM 1468 were added so that the final concentrations of doxorubicin and KM 1468 became 1 μmol/L and 1 μg/mL, respectively.
After the culturing, cell proliferation reagent WST-1 (manufactured by Roche) was added in an amount of 20 μL/well, and the mixture was cultured at 37° C. for from 2 to 3 hours. OD450 was measured with microplate reader M-SPmax 250 (manufactured by Molecular Devices). The number of viable cells after the treatment with the agent was expressed as a relative value when OD450 in which cells were solely added was regarded as 100%.

Consider `COc1cccc2c1C(=O)c1c(O)c3c(c(O)c1C2=O)C[C@@](O)(C(=O)CO)C[C@@H]3O[C@H]1C[C@H](N)[C@H](O)[C@H](C)O1` [Doxorubicin], for which the “Relative value of cell number” value turned out to be 40% (Method 1 group: doxorubicin on day 1, doxorubicin and KM 1468 on days 2 and 3); 57% (Method 2 group: KM 1468 on day 1, doxorubicin and KM 1468 on days 2 and 3); 44% (Method 3 group: doxorubicin and KM 1468 for three days).
